Measurements: PubChem BioAssay (NCI)
“And” between values parts separate entries of the source, which are not always exact repeats. Equal values may be shown once.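 These data come from cells grown in 96-well plates and exposed to compound for 48 hours at five concentrations. At the GI50, growth is halved. TGI marks complete inhibition of growth.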

Experiments:
Experiment in all cases: growth of human tumour cells (NCI), 48 h; in the data active = GI50 below about 0.43 µM; inactive = the rest
SF-539 CNS = tested on: SF-539 CNS
HOP-92 NSCLC = tested on: HOP-92 NSCLC
CAKI-1 renal = tested on: CAKI-1 renal
LOX IMVI melanoma = tested on: LOX IMVI melanoma
TK-10 renal = tested on: TK-10 renal
786-0 renal = tested on: 786-0 renal
XF 498 CNS = tested on: XF 498 CNS
SF-268 CNS = tested on: SF-268 CNS
SNB-75 CNS = tested on: SNB-75 CNS
LXFL 529 NSCLC = tested on: LXFL 529 NSCLC
M14 melanoma = tested on: M14 melanoma
HOP-18 NSCLC = tested on: HOP-18 NSCLC
SK-MEL-2 melanoma = tested on: SK-MEL-2 melanoma
RXF-631 renal = tested on: RXF-631 renal
UO-31 renal = tested on: UO-31 renal
HCT-116 colon = tested on: HCT-116 colon
RXF 393 renal = tested on: RXF 393 renal
DMS 114 small cell lung = tested on: DMS 114 small cell lung
SNB-19 CNS = tested on: SNB-19 CNS
SW-620 colon = tested on: SW-620 colon
U251 CNS = tested on: U251 CNS
UACC-257 melanoma = tested on: UACC-257 melanoma
A549 NSCLC = tested on: A549 NSCLC
NCI-H23 lung = tested on: NCI-H23 lung
MALME-3M melanoma = tested on: MALME-3M melanoma
EKVX NSCLC = tested on: EKVX NSCLC
NCI-H460 lung = tested on: NCI-H460 lung
HCC-2998 colon = tested on: HCC-2998 colon
HT29 colon = tested on: HT29 colon
SNB-78 CNS = tested on: SNB-78 CNS
ACHN renal = tested on: ACHN renal
K-562 leukemia = tested on: K-562 leukemia
A498 renal = tested on: A498 renal
DLD-1 colon = tested on: DLD-1 colon
RPMI-8226 leukemia = tested on: RPMI-8226 leukemia
SF-295 CNS = tested on: SF-295 CNS
SK-MEL-28 melanoma = tested on: SK-MEL-28 melanoma
OVCAR-5 ovarian = tested on: OVCAR-5 ovarian
COLO 205 colon = tested on: COLO 205 colon
SN12C renal = tested on: SN12C renal
KM12 colon = tested on: KM12 colon
NCI-H226 lung = tested on: NCI-H226 lung
OVCAR-3 ovarian = tested on: OVCAR-3 ovarian
IGROV1 ovarian = tested on: IGROV1 ovarian
MOLT-4 leukemia = tested on: MOLT-4 leukemia
HL-60(TB) leukemia = tested on: HL-60(TB) leukemia
HCT-15 colon = tested on: HCT-15 colon
SR leukemia = tested on: SR leukemia
M19-MEL melanoma = tested on: M19-MEL melanoma
KM20L2 colon = tested on: KM20L2 colon
OVCAR-8 ovarian = tested on: OVCAR-8 ovarian
HOP-62 NSCLC = tested on: HOP-62 NSCLC

CC(=O)OCC1OC(n2c(=S)n(-c3ccccc3)c(=S)c3ccccc32)C(OC(C)=O)C(OC(C)=O)C1OC(C)=O (stereo not drawn)
> 100 µM: TGI (SF-539 CNS) | TGI (HOP-92 NSCLC) | TGI (CAKI-1 renal) | TGI (LOX IMVI melanoma) | TGI (TK-10 renal) | TGI (786-0 renal) | TGI (XF 498 CNS) | TGI (SF-268 CNS) | TGI (SNB-75 CNS) | TGI (LXFL 529 NSCLC) | TGI (M14 melanoma) | TGI (HOP-18 NSCLC) | TGI (SK-MEL-2 melanoma) | TGI (RXF-631 renal) | TGI (UO-31 renal) | TGI (HCT-116 colon) | TGI (RXF 393 renal)
inactive: GI50 (CAKI-1 renal) 50.7 µM and 20 µM | GI50 (LOX IMVI melanoma) 60.4 µM and 19.7 µM | GI50 (XF 498 CNS) 28.3 µM and 4.4 µM | GI50 (SF-268 CNS) 77.9 µM and 9.64 µM | GI50 (LXFL 529 NSCLC) 62.3 µM and 8.58 µM | GI50 (SK-MEL-2 melanoma) 78.6 µM and > 35.8 µM | GI50 (RXF 393 renal) 38.4 µM and 4.04 µM

NCCn1cnc2nc(NC(=O)c3ccccc3)[nH]c(=O)c21
> 100 µM: TGI (DMS 114 small cell lung) | TGI (SNB-19 CNS) | TGI (SW-620 colon) | TGI (U251 CNS) | TGI (UACC-257 melanoma) | TGI (A549 NSCLC) | TGI (SF-539 CNS) | TGI (NCI-H23 lung) | TGI (HOP-92 NSCLC) | TGI (MALME-3M melanoma) | TGI (EKVX NSCLC) | TGI (NCI-H460 lung) | TGI (HCC-2998 colon) | TGI (HT29 colon) | TGI (SNB-78 CNS) | TGI (ACHN renal) | TGI (K-562 leukemia) | TGI (LOX IMVI melanoma) | TGI (TK-10 renal) | TGI (A498 renal) | TGI (786-0 renal) | TGI (SF-268 CNS) | TGI (SNB-75 CNS) | TGI (DLD-1 colon) | TGI (LXFL 529 NSCLC) | TGI (RPMI-8226 leukemia) | TGI (SF-295 CNS) | TGI (SK-MEL-28 melanoma) | TGI (OVCAR-5 ovarian) | TGI (COLO 205 colon) | TGI (SN12C renal) | TGI (KM12 colon) | TGI (NCI-H226 lung) | TGI (OVCAR-3 ovarian) | TGI (IGROV1 ovarian) | TGI (MOLT-4 leukemia) | TGI (HL-60(TB) leukemia) | TGI (HOP-18 NSCLC) | TGI (HCT-15 colon) | TGI (SK-MEL-2 melanoma) | TGI (SR leukemia) | TGI (M19-MEL melanoma) | TGI (RXF-631 renal) | TGI (UO-31 renal) | TGI (HCT-116 colon) | TGI (RXF 393 renal) | TGI (KM20L2 colon) | TGI (OVCAR-8 ovarian) | TGI (HOP-62 NSCLC)
